This is an account of results in publication PMC8456950, “Structure‐Guided Design of G‐Protein‐Coupled Receptor Polypharmacology” (Angewandte Chemie (International Ed. in English), 2021).

Data set [1] relates to unilaterally 6-OHDA lesioned rats. The experiment in a line: Rotation test in unilaterally 6-OHDA lesioned rats (model of Parkinsonism). Type of data set: in vivo. The procedure:
Evaluation of compound 30 in rodent model of Parkinsonism. Male Sprague Dawley rats (150-200 g) were housed in air-conditioned rooms (12h dark/light cycle) at 20°C and a humidity of 53%. Experiments were performed in agreement with the European Communities Council Directive of 24 November 1986 (86/609/EEC) on the ethical use of animals and were approved by the local ethical committee (Stockholm North Ethical Committee, N105/16). Rats were anesthetized with ketamine (100 mg/kg, IP; Intervet)/xylazine (5 mg/kg, IP; Bayer, Kiel, Germany), pretreated with desipramine (25 mg/kg, IP; Sigma, St Louis, MO, USA)/pargyline (5 mg/kg, IP; Sigma), placed in a stereotaxi c instrument and injected with 6-OHDA (2.5 µl of a 5mg/ml solution; Sigma) into the median forebrain bundle (MFB) of the right hemisphere (AP -2.8 mm, ML -2.0 mm and V -9.0 mm). Two weeks after the unilateral 6-OHDA lesion, rats were injected with apomorphine (1 mg/kg, IP; Sigma) and their contralateral rotations were measured to determine the degree of nigrostriatal denervation. Four weeks after surgery, rats that were divided into two group according to the number of apomorphine-induced rotations. The rats were treated either with DMSO(17%)/saline (n=6) or compound 30 (n=7, 24 mg/kg, IP) dissolved in DMSO(17%)/saline. The number of rotations was calculated automatically with Noldus EthoVision XT11. 5 Software for 30 min following the drug administration. The two […]
groups were then compared by using a Mann-Whitney test. A second set of independent experiments using a new set of rats were carried out using the same protocol to assess the involvement of the D2R in the observed effect. In this case, rats were divided into four groups according to the number of apomorphine-induced rotations. The rats were treated with either DMSO(17%)/saline (n=6), raclopride (n=7, 2mg/kg, IP) dissolved in DMSO(17%)/saline, compound 30 (n=7, 24 mg/kg, IP) dissolved in DMSO(17%)/saline or the combination of raclopride (30 min pretreatment) and compound 30 (n=7). The rotation test was then performed for 30 min. […]

The next data set can be described thus: Caco-2 cell permeability. Type of data set: in vitro ADME. The conditions noted are these: human, Caco-2 monolayer. The procedure:
forskolin (Sigma 17018) was added and incubated for 5 min at 37 °C with gentle stirring (150 rpm). Reagents (#CISBIO 62AM4PEC) were added and, after incubation for 60 min at rt with gentle stirring (90 rpm) and protected from light, homogeneous time resolved fluorescence (HTRF, λEx: 320 nm; λEm: 620-665 nm) from each well was measured using a Tecan Infinite M1000 Pro. Data were normalized to the maximum effect of dopamine. EC50 and Ema x values were obtained after fitting the d ata to a four -parameter logistic equatio n using Prism V2. 1 (Graph Pad Inc, Chicago, USA) .
Cell permeability. The Caco-2 cell permeability of compound 30 was determined by the Uppsala university optimization and pharmaceutical profiling platform (UDOPP) as described previously26. Briefly, Caco-2 cell monolayers (passage 94-105) were grown on a permeable filter support and used on day 21 after seeding. Prior to the experiment a 10 µM solution of 30 was prepared by dilution of a 10 mM stock solution in DMSO with Hank’ s balanced salt solution (HBSS; 7.4) and warmed to 37 ° C. The Caco-2 filters were washed with pre-warmed HBSS prior to the experiment, and the solution of 30 was thereafter applied on the apical or basolateral side of the monolayer. Permeability was determined at 37 ° C and at pH 7.4 in both the apical and basolateral chamber, with a stirring rate of 500 rpm. […]
(Passage across Caco-2 layers is used to estimate intestinal permeability.)

“Also recorded” adds a separate entry of the source.

A word on the Papp A→B: it is how fast a substance crosses the layer from the apical side.

In the case of `CCCN(CCCCC(=O)Nc1nc2c(OC)ccc(OC)c2s1)C1Cc2ccccc2C1` [Compound 30], the “contralateral rotations (net rotations, 30 min) versus control group” value in data set [1] (24 mg kg^−1 IP, 6-OHDA lesioned rats, p<0.01 first set, p<0.05 independent second set) is listed as “significantly higher number of contralateral rotations; also recorded: significant increase of contralateral rotations”. In addition, the “effect on contralateral rotations in combination with D2 antagonist raclopride” value in data set [1] (30 at 24 mg kg^−1 IP with raclopride 2 mg kg^−1 IP (30 min pretreatment)) is recorded as “reversed”. Besides, the apparent permeability from apical to basolateral (Papp A→B) at 60 min, 10 µM in “Caco-2 cell permeability” (10 µM, pH 7.4, 37 °C, apical to basolateral) came to 3.8 ×10⁻⁶ cm/s. Moreover, the efflux ratio at 60 min, 10 µM in “Caco-2 cell permeability” (pH 7.4, read-out: efflux ratio (ER)) is 8.
